# Several values for one entry are separate records, joined by “and”; a condition that tells them apart may be missing. Equal values may be shown once. Marks after values point to notes of the source that are not given here.
# Assays:
# [1] = system: human c-Ha-ras proto-oncogene (transgene); assay: Mutation analysis (RFLP, PCR-SSCP) of the transgene in carcinogen-induced tumors
# Source text: Single-stranded DNA confirmation polymorphism (SSCP) analysis is able to be performed according to the followings; T. Sekiya. Protein, Nucleic Acid, Enzyme, vol.
# Possible mutations in exons 1 to 4 of the human Ha-ras proto-oncogene and exons 1 and 2 of the endogenous gene were examined by PCR-SSCP analysis.
# RFLP analysis is able to perform according to the followings; Nagase, et al., Protein, Nucleic Acid, Enzyme, vol.
# [2] = system: wild type rats (non Tg rats); assay: MNU-induced mammary carcinogenesis in wild type rats (128 line); format: in vivo, rat; details: strain 128, 'MNU Treatment' cell '—' (wild type rats per text), week 8, 24 rats
# Description: (§1) MNU, at a dose of 50 mg/kg, was intravenously injected into Hras128 and wild type rats, at 50 days old, to perform histopathological examination of the incidence of mammary tumor and to screen the presence or absence of any point mutation of the transgene and endogenous c-Ha-ras gene.
# (§2) Mammary tumor became palpable in the Hras128 strain rats, 5 weeks after MNU administration, and then multiple adenocarcinoma developed in all (100%) of the mammary glands of all the transgenic rats at week 8, but that in the wild type rats only 29.2% even at week 8 (see Table 1 and FIG. 2). In 102-strain rats, multiple adenocarcinoma was observed 16 weeks after MNU administration.
# Hras128 rats [3] = assay: MNU-induced mammary carcinogenesis in Hras128 transgenic rats; format: in vivo, rat
# Description: as §1, §2
# Hras102 rats = assay: MNU-induced mammary carcinogenesis in 102-strain transgenic rats; format: in vivo, rat
# Description: as §1, §2
# [4] = system: wild type rats (non Tg rats); assay: MNU-induced mammary carcinogenesis in wild type rats (102 line); format: in vivo, rat; details: strain 102, 'MNU Treatment' cell '—' (probably wild rats), week 18, 13 rats
# Description: as §1, §2
# [5] = system: endogenous Ha-ras gene (rat); assay: Mutation analysis (PCR-SSCP) of the endogenous Ha-ras gene in carcinogen-induced tumors
# Source text: Single-stranded DNA confirmation polymorphism (SSCP) analysis is able to be performed according to the followings; T. Sekiya. Protein, Nucleic Acid, Enzyme, vol. 41, No. 5, 539, 1996.
# Possible mutations in exons 1 to 4 of the human Ha-ras proto-oncogene and exons 1 and 2 of the endogenous gene were examined by PCR-SSCP analysis. Using human or rat specific primers, only two bands appeared on the gals. With common primers (cHras21F and cHras21R) for Ha-ras exon 2 of both man and rats, four bands were detected. Human or rat specific bands were identified by signals from normal DNA of the transgenic and non-transgenic rats. DNA from T24 having a mutation in human Ha-ras of codon 12, GGC to GTC and that from pSK2 having a mutation in the codon 61, CAG to CTG, gave clearly mobility shifted bands in the assays (FIG. 4). However, a GGC to GAC mutation of the transgene enriched by PCR after RFLP analysis as described below, which was frequently observed in tumors induced by MNU in human Ha-ras proto-oncogene transgenic mice, could not be detected by SSCP -PCR analysis. In 44 tumors from Hras128 transgenic rats treated with MNU, mutations were not detected in exons 1 to 4 of the introduced human and endogenous c-Ha-ras genes under any of four SSCP conditions (at 4 or 20° C., with or without 5% glycerol) (Table 1). In contrast, a relatively high frequency (6 of 21 tumors of non-transgenic rats (28.6%) of GGA to GAA mutations in codon 12 of the endogenous Ha-ras gene was detected in mammary carcinomas of non-transgenic using PCR-SSCP analysis followed by direct sequencing (Table 1).
# [6] = system: wild type rats (non Tg rats); assay: PhIP-induced mammary carcinomas in wild type rats; format: in vivo, rat; details: 4 rats
# Source text: (§3) Well established mammary carcinogens, such as 7,14-dimethylbenz[a]anthracene (DMBA) and 2-amino-1-methyl-6-phenylimidazo[4,5-]pyridlne (PhIP) were given to the Hras128 rats in the same manner as in previous reports.
# Hras128 rats [7] = assay: PhIP-induced mammary carcinomas in Hras128 rats; format: in vivo, rat
# Source text: as §3
# Hras128 rats [8] = assay: Effects of d-limonene on MNU-induced mammary carcinogenesis in Hras128 transgenic rats; format: in vivo, rat; details: 5% d-limonene, 9 rats
# [9] = MNU-induced mammary tumors, Hras128, 44 tumors examined
# [10] = strain 128, MNU performed, 50 mg/kg i.v., week 8 after injection, 22 rats
# [11] = strain 102, MNU performed, week 18 after injection, 23 rats
# [12] = MNU-induced mammary tumors, Hras128, 44 tumors examined, SSCP
# [13] = PhIP-induced mammary carcinomas, row printed 'Wild' (Hras128 per text), 20 tumors examined
# [14] = PhIP-induced mammary carcinomas, row printed 'Wild' (Hras128 per text), 20 tumors examined, RFLP
# [15] = Hras128, mammary carcinomas, 6 rats
compound,measurement,setting,value
"CN(N=O)C(N)=O [MNU, N-methyl-N-nitrosourea]","Tumors with transgene exon 2 (codon 61) mutation, number",[1]; [9],0
same,"Tumors with transgene exon 3 mutation, number",[1]; [9],0
same,"Tumors with transgene exon 4 mutation, number",[1]; [9],0
same,No. of tumor-bearing rats,[2],7
same,No. of tumor/rat,[2],0.46 ± 0.93
same,"Mammary tumor became palpable, time after MNU administration","Hras128 rats [3]; Hras128 rats, MNU 50 mg/kg i.v. at 50 days old",5 weeks
same,Sensitivity of Tg rats to MNU-induced mammary carcinogenesis,Hras128 rats [3]; Tg rats vs wild type,very sensitive
same,No. of tumor-bearing rats,Hras128 rats [3]; [10],22
same,No. of tumor/rat,Hras128 rats [3]; [10],14.0 ± 6.42
same,"Multiple adenocarcinoma observed, time after MNU administration","Hras102 rats; 102-strain rats, MNU 50 mg/kg i.v.",16 weeks
same,No. of tumor-bearing rats,Hras102 rats; [11],20
same,No. of tumor-bearing rats (%),Hras102 rats; [11],(87.0) %
same,No. of tumor/rat,Hras102 rats; [11],5.83 ± 5.31
same,No. of tumor-bearing rats,[4],10
same,No. of tumor-bearing rats (%),[4],(76.9) %
same,No. of tumor/rat,[4],3.00 ± 2.86
same,"Tumors with endogenous (rat) exon 1 mutation, number",[5]; [12],0
same,"Tumors with endogenous (rat) exon 2 mutation, number",[5]; [12],0
same,"Tumors with endogenous (rat) exon 2 mutation, number","[5]; MNU-induced mammary tumors, Wild, 21 tumors examined, SSCP",0
Cn1c(N)nc2ncc(-c3ccccc3)cc21 [PhIP],"Transgene codon 12 mutations, %",[1]; [13],30%
same,"Transgene codon 61 mutations, %",[1]; [13],23.1%
same,"Transgene mutations total, number of tumors",[1]; [13],8
same,"Transgene codon 12 mutations, number of tumors",[1]; [14],6/20 and 6
same,"Transgene codon 61 mutations, number of tumors",[1]; [14],3/20 and 3
same,"Transgene mutations total, figure in parentheses","[1]; PhIP-induced mammary carcinomas, row printed 'Wild' (Hras128 per text), percent sign not given",61.5
same,No. of tumor-bearing rats,[6],0(0)
same,No. of tumor-bearing rats (%),[6],0(0) %
same,No. of tumors/rat,[6],0
same,Tumor size,"Hras128 rats [7]; Hras128, mammary carcinomas",9.23 ± 6.21 mm
same,No. of tumor-bearing rats,Hras128 rats [7]; [15],6
same,No. of tumor-bearing rats (%),Hras128 rats [7]; [15],100%
same,No. of tumors/rat,Hras128 rats [7]; [15],9.67 ± 4.76^b
same,Sensitivity of the Hras128 rat to PhIP,Hras128 rats [7]; mammary carcinogenesis,highly sensitive
same,"Endogenous (rat) exon 1 mutations, number of tumors",[5]; [13],0
same,"Endogenous (rat) exon 2 mutations, number of tumors",[5]; [13],0
"C=C(C)[C@H]1CC=C(C)CC1 [d-Limonene, d-limonene]",Average size of tumors (mm),"Hras128 rats [8]; basal diet control 10.7 ± 7.34, P < 0.01",8.23 ± 4.88 ^a mm
same,No. of tumors/rat,Hras128 rats [8]; basal diet control 26.4 ± 8.52,19.4 ± 6.71
same,Average size of tumors (mm^3),"Hras128 rats [8]; basal diet control 637.7 ± 1669, P < 0.01",269.5 ± 735.5 ^a mm^3

# — patent US6576811B1, “Transgenic rat with human normal type c-Ha-ras gene” (National Cancer Center Research Institute, priority 1998, dated 2003)
